Source: article PMC6759796, “Integrating Pharmacokinetics Study, Network Analysis, and Experimental Validation to Uncover the Mechanism of Qiliqiangxin Capsule Against Chronic Heart Failure” (Frontiers in Pharmacology, 2019)

Assay: Pharmacokinetics of 29 QLQX components in rat plasma by HPLC-MS/MS after intragastric QLQX
Details: Sprague-Dawley, rat, in vivo, po, […]

Question: For `CCN1C[C@]2(COC)[C@H](O)C[C@H](OC)[C@@]34[C@@H]5C[C@@]6(O)[C@H](OC(=O)c7ccccc7)[C@@H]5[C@@](OC(C)=O)([C@@H]([C@H](OC)[C@H]23)[C@@H]14)[C@@H](O)[C@@H]6OC` [Aconitine], which Tmax is on record?
Answer: The Tmax was 0.33 h.

Question: What about the half-life of the same molecule?
Answer: The half-life was 18.4 ± 5.44 h.

Same assay, conditions: Sprague-Dawley, rat, plasma, po, […]

Question: For `COc1ccc(-c2coc3cc(O)ccc3c2=O)cc1` [Formononetin], which Tmax is on record?
Answer: Its Tmax is 0.17 h.

Question: And the half-life?
Answer: The half-life was 5.07 ± 2.13 h.

Question: What does the source list for `CC(C)=CCC[C@](C)(O[C@@H]1O[C@H](CO[C@@H]2O[C@H](CO)[C@@H](O)[C@H](O)[C@H]2O)[C@@H](O)[C@H](O)[C@H]1O)[C@H]1CC[C@]2(C)[C@@H]1[C@H](O)C[C@@H]1[C@@]3(C)CC[C@H](O[C@@H]4O[C@H](CO)[C@@H](O)[C@H](O)[C@H]4O[C@@H]4O[C@H](CO)[C@@H](O)[C@H](O)[C@H]4O)C(C)(C)[C@@H]3CC[C@]12C` [Ginsenoside Rb1]?
Answer: Tmax: 0.67 h; half-life: 9.16 ± 3.18 h

Question: For `CC(C)=CCC[C@](C)(O[C@@H]1O[C@H](CO[C@@H]2OC[C@H](O)[C@H](O)[C@H]2O)[C@@H](O)[C@H](O)[C@H]1O)[C@H]1CC[C@]2(C)[C@@H]1[C@H](O)C[C@@H]1[C@@]3(C)CC[C@H](O[C@@H]4O[C@H](CO)[C@@H](O)[C@H](O)[C@H]4O[C@@H]4O[C@H](CO)[C@@H](O)[C@H](O)[C@H]4O)C(C)(C)[C@@H]3CC[C@]12C` [Ginsenoside Rb2], which Tmax is on record?
Answer: Its Tmax is 1.5 ± 0.06 h.

Question: And the half-life?
Answer: The half-life was 10.1 ± 4.53 h.

Question: Which results are given for `CC(C)=CCC[C@](C)(O[C@@H]1O[C@H](CO[C@@H]2O[C@@H](CO)[C@H](O)[C@H]2O)[C@@H](O)[C@H](O)[C@H]1O)[C@H]1CC[C@]2(C)[C@@H]1[C@H](O)C[C@@H]1[C@@]3(C)CC[C@H](O[C@@H]4O[C@H](CO)[C@@H](O)[C@H](O)[C@H]4O[C@@H]4O[C@H](CO)[C@@H](O)[C@H](O)[C@H]4O)C(C)(C)[C@@H]3CC[C@]12C` [Ginsenoside Rc]?
Answer: Tmax: 0.67 h; half-life: 4.32 ± 2.1 h

Question: For `CC(C)=CCC[C@](C)(O[C@@H]1O[C@H](CO)[C@@H](O)[C@H](O)[C@H]1O)[C@H]1CC[C@]2(C)[C@@H]1[C@H](O)C[C@@H]1[C@@]3(C)CC[C@H](O[C@@H]4O[C@H](CO)[C@@H](O)[C@H](O)[C@H]4O[C@@H]4O[C@H](CO)[C@@H](O)[C@H](O)[C@H]4O)C(C)(C)[C@@H]3CC[C@]12C` [Ginsenoside Rd], which Tmax is on record?
Answer: Its Tmax is 0.67 h.

Question: What about the half-life of the same molecule?
Answer: Its half-life is 5.9 ± 1.14 h.

Question: Which results are given for `CC(C)=CCC[C@](C)(O[C@@H]1O[C@H](CO)[C@@H](O)[C@H](O)[C@H]1O)[C@H]1CC[C@]2(C)[C@@H]1[C@H](O)C[C@@H]1[C@@]3(C)CC[C@H](O)C(C)(C)[C@@H]3[C@@H](O[C@@H]3O[C@H](CO)[C@@H](O)[C@H](O)[C@H]3O[C@@H]3O[C@@H](C)[C@H](O)[C@@H](O)[C@H]3O)C[C@]12C` [Ginsenoside Re]?
Answer: Tmax: 0.67 ± 0.06 h; half-life: 7.33 ± 3.45 h

Question: With `CC(C)=CCC[C@](C)(O[C@@H]1O[C@H](CO)[C@@H](O)[C@H](O)[C@H]1O)[C@H]1CC[C@]2(C)[C@@H]1[C@H](O)C[C@@H]1[C@@]3(C)CC[C@H](O)C(C)(C)[C@@H]3[C@@H](O[C@@H]3O[C@H](CO)[C@@H](O)[C@H](O)[C@H]3O)C[C@]12C` [Ginsenoside Rg1] as the molecule, how does the Tmax read?
Answer: Its Tmax is 0.67 h.

Question: What about the half-life of the same molecule?
Answer: Its half-life is 8.69 ± 3.17 h.

Question: Which results are given for `O=C(/C=C/c1ccc(O)c2c1[C@H](C(=O)O)[C@@H](c1ccc(O)c(O)c1)O2)O[C@H](Cc1ccc(O)c(O)c1)C(=O)O` [Lithospermic acid]?
Answer: Tmax: 0.67 h; half-life: 4.8 ± 0.89 h

Question: What does the source list for `O=C(O)c1ccc(O)c(O)c1` [Protocatechuic acid]?
Answer: Tmax: 0.67 h; half-life: 8.38 ± 1.02 h

Question: Which Tmax does the source give for `O=c1c(O)c(-c2ccc(O)c(O)c2)oc2cc(O)cc(O)c12` [Quercetin] here?
Answer: The Tmax was 0.67 h.

Question: And the half-life?
Answer: Its half-life is 5.04 ± 0.98 h.

Same assay, conditions: rat plasma, QLQX suspension […] intragastrically, mean ± SD

Question: Which Tmax does the source give for `CC(C)(O)C1CCC(C)(C2C(O)CC3(C)C4CC(OC5OC(CO)C(O)C(O)C5O)C5C(C)(C)C(OC6OCC(O)C(O)C6O)CCC56CC46CCC23C)O1` (centres unmarked) [Astragaloside] here?
Answer: Its Tmax is 0.67 ± 0.00.

Question: What about the t1/2 of the same molecule?
Answer: The t1/2 was 5.74 ± 0.78.

Question: For `CCN1C[C@]2(COC)[C@H](O)C[C@H](OC)[C@@]34[C@@H]5C[C@@]6(O)[C@H](OC(=O)c7ccccc7)[C@@H]5[C@@](O)([C@@H]([C@H](OC)[C@H]23)[C@@H]14)[C@@H](O)[C@@H]6OC` [Benzoylaconine], which Tmax is on record?
Answer: The Tmax was 1.00 ± 0.00.

Question: What about the t1/2 of the same molecule?
Answer: Its t1/2 is 18.63 ± 7.20.

Question: Which results are given for `COC[C@@]12CC[C@H](OC)[C@]34C([C@H]([C@H](OC)[C@H]13)[C@]1(O)[C@H]3[C@@H](OC(=O)c5ccccc5)[C@](O)(C[C@H]34)[C@@H](OC)[C@@H]1O)N(C)C2` [Benzoylhypaconine]?
Answer: Tmax: 0.67 ± 0.00; t1/2: 12.88 ± 3.47

Question: With `COC[C@]12CN(C)C3[C@@H]4[C@H](OC)[C@H]1[C@@]3([C@@H](OC)C[C@H]2O)[C@@H]1C[C@@]2(O)[C@H](OC(=O)c3ccccc3)[C@@H]1[C@]4(O)[C@@H](O)[C@@H]2OC` [Benzoylmesaconine] as the molecule, how does the Tmax read?
Answer: The Tmax was 0.67 ± 0.11.

Question: What about the t1/2 of the same molecule?
Answer: Its t1/2 is 8.23 ± 2.02.

Question: For `COC[C@]12CN(C)[C@@H]3[C@@H]4[C@H](OC)[C@H]1[C@@]3([C@@H](OC)C[C@H]2O)[C@@H]1C[C@@]2(O)[C@H](OC(=O)c3ccccc3)[C@@H]1[C@]4(OC(C)=O)[C@@H](O)[C@@H]2OC` [Mesaconitine], which Tmax is on record?
Answer: Its Tmax is 0.17 ± 0.06.

Question: What about the t1/2 of the same molecule?
Answer: The t1/2 was 6.23 ± 1.23.

Assay: not given
Set-up: unit not given beside the values
Details: rat, in vivo, po

Question: For `COc1ccc(-c2coc3cc(O[C@@H]4O[C@H](CO)[C@@H](O)[C@H](O)[C@H]4O)ccc3c2=O)cc1O` [Calycosin-7-glucoside], which “AUC0∼t” value is on record?
Answer: Its value is 103.26 ± 47.63.

Question: And the “AUC0∼∞” value?
Answer: Its value is 120.71 ± 50.71.

Question: What does the source list for `O=C(O)[C@H](O)Cc1ccc(O)c(O)c1` [Danshensu]?
Answer: AUC0∼t: 290.92 ± 68.38; AUC0∼∞: 390.90 ± 66.50

Question: Which “AUC0∼t” value does the source give for `CC(C)=CCC[C@](C)(O)[C@H]1CC[C@]2(C)[C@@H]1[C@H](O)C[C@@H]1[C@@]3(C)CC[C@H](O[C@@H]4O[C@H](CO)[C@@H](O)[C@H](O)[C@H]4O[C@@H]4O[C@H](CO)[C@@H](O)[C@H](O)[C@H]4O)C(C)(C)[C@@H]3CC[C@]12C` [Ginsenoside Rg3] here?
Answer: The value was 67.13 ± 27.93.

Question: And the “AUC0∼∞” value?
Answer: Its value is 89.81 ± 34.43.

Question: Which “AUC0∼t” value does the source give for `COc1ccc([C@@H]2CC(=O)c3c(O)cc(O[C@@H]4O[C@H](CO[C@@H]5O[C@@H](C)[C@H](O)[C@@H](O)[C@H]5O)[C@@H](O)[C@H](O)[C@H]4O)cc3O2)cc1O` [Hesperidin] here?
Answer: Its value is 154.32 ± 66.50.

Question: What about the “AUC0∼∞” value of the same molecule?
Answer: Its value is 187.77 ± 34.98.

Question: For `COc1cc(/C=C/C(=O)OCC[N+](C)(C)C)cc(OC)c1O.O=S(=O)([O-])O` [Sinapine bisulfate], which “AUC0∼t” value is on record?
Answer: Its value is 3.98 ± 1.21.

Question: And the “AUC0∼∞” value?
Answer: Its value is 8.76 ± 2.85.

Question: With Salvianolic acid B as the molecule, how does the “AUC0∼t” value read?
Answer: The value was 818.47 ± 249.00.

Question: And the “AUC0∼∞” value?
Answer: The value was 980.47 ± 112.07.

Assay: in vivo
Details: Sprague-Dawley, rat, po

Question: With `CC(C)=CCC[C@](C)(O[C@@H]1O[C@H](CO)[C@@H](O)[C@H](O)[C@H]1O)[C@H]1CC[C@]2(C)[C@@H]1[C@H](O)C[C@@H]1[C@@]3(C)CC[C@H](O[C@@H]4O[C@H](CO)[C@@H](O)[C@H](O)[C@H]4O)C(C)(C)[C@@H]3CC[C@]12C` [Ginsenoside F2] as the molecule, how does the Tmax read?
Answer: The Tmax was 0.67 h.

Question: And the half-life?
Answer: Its half-life is 6.23 ± 2.89 h.

Question: For `CC(C)=CCC[C@](C)(O)[C@H]1CC[C@]2(C)[C@@H]1[C@H](O)C[C@@H]1[C@@]3(C)CC[C@H](O)C(C)(C)[C@@H]3[C@@H](O[C@@H]3O[C@H](CO)[C@@H](O)[C@H](O)[C@H]3O[C@@H]3O[C@H](CO)[C@@H](O)[C@H](O)[C@H]3O)C[C@]12C` [Ginsenoside Rf], which Tmax is on record?
Answer: The Tmax was 0.67 h.

Question: What about the half-life of the same molecule?
Answer: Its half-life is 6.12 ± 3.53 h.

Question: With `COC[C@@]12CC[C@H](OC)[C@]34C(C([C@H](OC)[C@H]13)[C@]1(OC(C)=O)[C@H]3[C@@H](OC(=O)c5ccccc5)[C@](O)(C[C@H]34)[C@@H](OC)[C@@H]1O)N(C)C2` [Hypaconitine] as the molecule, how does the Tmax read?
Answer: Its Tmax is 0.33 h.

Question: And the half-life?
Answer: The half-life was 8.01 ± 2.39 h.

Question: With `O=C(/C=C/c1ccc(O)c(O)c1)O[C@H](Cc1ccc(O)c(O)c1)C(=O)O` [Rosmarinic acid] as the molecule, how does the Tmax read?
Answer: The Tmax was 0.67 h.

Question: What about the half-life of the same molecule?
Answer: The half-life was 5.28 ± 1.35 h.

Question: For `C[C@@H]1O[C@@H](OC[C@H]2O[C@@H](Oc3c(-c4ccc(O)c(O)c4)oc4cc(O)cc(O)c4c3=O)[C@H](O)[C@@H](O)[C@@H]2O)[C@H](O)[C@H](O)[C@H]1O` [Rutin], which Tmax is on record?
Answer: Its Tmax is 0.33 h.

Question: What about the half-life of the same molecule?
Answer: Its half-life is 5.33 ± 1.27 h.

Question: Which Tmax does the source give for `O=C(/C=C/c1ccc(O)c(O)c1/C=C/c1ccc(O)c(O)c1)O[C@H](Cc1ccc(O)c(O)c1)C(=O)O` [Salvianolic acid A] here?
Answer: The Tmax was 0.17 h.

Question: What about the half-life of the same molecule?
Answer: Its half-life is 7.5 ± 4.92 h.
